These are literature values, as cited in patent US20200197351A1, “TRIVALENT AND DIVALENT CATIONS AS ADMINISTRABLE AGENTS FOR INCREASED PROCESSIVITY AND IMPROVED FIDELITY OF REVERSE TRANSCRIPTASE IN TELOMERASE AND IN NUCLEIC ACID POLYMERASES” (priority 2018, published 2020).

The conditions of this data set: detailed testing in mammals.

Structures are written as SMILES.

For the molecule `[Sc]` [Scandium], the toxicity result is “little or no toxicity”.
